# Data reported in patent US10647680B2, “Urea compound, preparation method therefor and medical use thereof” (Ancureall Pharmaceutical (Shanghai) Co., Ltd., priority 2016, dated 2020).
# Experiments:
# [1] = test system: MV4-11 (FLT3 ITD+/+ mutant type); assay: In vitro growth inhibition (GI50), MV4-11; type: cell-based, human; details: Homo sapiens, MV4-11; Cell lines of leukemia; read-out: GI 50 MV4-11 FLT3 (ITD +/+)
# Text: (§1) 1. Cell Lines and Cell Cultures
# (§2) Tumor cell line is an effective cell model for studying the inhibition of tumor cell growth or proliferation in vitro. In the present invention, a representative tumor cell line was selected to determine the cell growth inhibition activity of the present compound. All cell lines used were from ATCC, DSMZ, and the Cell Bank of the Chinese Academy of Sciences. Cell culture conditions and methods were in accordance with the requirements of each cell line. Cells were subcultured in vitro for no more than 3 passages each time, and as required, single-clone purification and identification of cell lines could be carried out.
# (§3) The cell culture media used were RPMI1640 (Gibco), MEM (Gibco), McCOY'S5A (Gibco), and IMDM (Gibco). The complete medium was prepared by supplement with 5˜20% fetal calf serum (Gibco), 1% double-antibiotics (10000 units/mL penicillin and 10000 units/mL), 2 mM glutamine or 1 mM sodium pyruvate, respectively.
# (§4) The human acute […] monomonocyte leukemia cell line MV4-11 (FLT3 ITD+/+ mutant type, ATCC) was cultured in a complete medium comprising 1×IMDM and 10% FBS. Human acute myeloid leukemia cell line MOLM-13 (FLT3 ITD+/− mutant type, DSMZ), human acute lymphoblastic leukemia cell line RS4; 11 (FLT3 wild type, ATCC), human chronic granulocytic leukemia cell line K562 (FLT3 negative expression, positive expression of BCR-ABL fusion protein, ATCC), human promyelocytic leukemia cell line HL-60 (FLT3 wild type, ATCC), human B lymphoblastic leukemia cell line RAMOS (positive expression of Brutons tyrosine protein kinase, ATCC), human acute myeloid leukemia cell line Kasumi-1 (c-Kit N822K mutant type, ATCC), human acute monocytic leukemia cell line U937 (FLT3 wild-type, ATCC), human acute myeloid leukemia cell line OCI-AML3 (NPMc+ mutant type, ATCC), human acute myeloid leukemia cell line KG-1 (expressing FGFR1OP2-FGFR1 fusion protein, ATCC) were cultured in a complete medium comprising 1×RPMI1640 and 10% FBS, respectively.
# (§5) The suspension cells were collected by centrifugation. The supernatant was discarded and the cell pellet was resuspended and counted. Different cell concentrations (5˜10×10^4 cells/mL) were prepared according to the growth cycle of each cell line and then seeded on a 96-well plate (Corning), 100 μL/well. The cells were incubated overnight at 37° C., 5% CO2. The compounds were added to the cells on the second day with 2 wells in parallel. The final concentration of organic solvent shall not exceed 1%. The cells were continually incubated for 3 to 5 days, and then subjected to MTT assay.
# (§6) The compound was stored in a concentration of 10 mM at −20° C. and diluted to 2- or 10-fold series prior to use.
# (§7) Dojindo CCK8 reagent kit was used as MTT assay. […] FC meter was used as microplate reader.
# (§8) For adherent cells, culture medium was removed and immediately replaced with the fresh prepared medium which contains 10% CCK8 reagent (100 μL/well). For the suspension cells, CCK8 was directly added to 10% of the final concentration. The cells were continually incubated for 1˜4 h. […] The experiment was independently repeated 1˜3 times, and subject to biological statistical analysis. 4. Experimental Results
# (§9) The initial concentration of the compound was 5,000 nM, then it was serially diluted by 2-fold or 10-fold to 0.01 nM. The GI50 value of each test compound was calculated according to the GI50 assay and calculation method. The experiments were repeated 1 to 3 times, and data were subjected to biological statistical analysis.
# [2] = test system: MOLM-13 (FLT3 ITD+/− mutant type); assay: In vitro growth inhibition (GI50), MOLM-13; type: cell-based, human; details: Homo sapiens, MOLM-13; Cell lines of leukemia; read-out: GI 50 MOLM-13 FLT3 (ITD+/−)
# Text: as §1, §2, §3, §4, §5, §6, §7, §8, §9
# RS4; 11 (FLT3 wild type) = assay: In vitro growth inhibition (GI50), RS4; 11; type: cell-based, human; details: Homo sapiens, RS4-11; Cell lines of leukemia; read-out: GI 50 RS4: 11 FLT3 (WT)
# Text: as §1, §2, §3, §4, §5, §6, §7, §8, §9
# [3] = test system: K562 (FLT3 negative expression, positive expression of BCR-ABL fusion protein); assay: In vitro growth inhibition (GI50), K562; type: cell-based; details: Homo sapiens, Cell lines of leukemia, read-out: GI 50 K562 BCR-ABL
# Text: as §1, §2, §3, §4, §5, §6, §7, §8, §9
# [4] = test system: RAMOS (positive expression of Brutons tyrosine protein kinase); assay: In vitro growth inhibition (GI50), RAMOS; type: cell-based; details: Homo sapiens, Cell lines of leukemia, read-out: GI 50 Ramos BTK
# Text: as §1, §2, §3, §4, §5, §6, §7, §8, §9
# U937 (FLT3 wild-type) = assay: In vitro growth inhibition (GI50), U937; type: cell-based; details: Homo sapiens, U-937; Cell lines of leukemia; read-out: GI 50 U937 FLT 3(WT)
# Text: as §1, §2, §3, §4, §5, §6, §7, §8, §9
# [5] = test system: Kasumi-1 (c-Kit N822K mutant type); assay: In vitro growth inhibition (GI50), Kasumi-1; type: cell-based; details: Homo sapiens, Cell lines of leukemia, read-out: GI 50 Kasumi-1 Kit (N822K)
# Text: as §1, §2, §3, §4
# as §5, with “Adherent cells were digested with 0.25% pancreatin-EDTA (Gibco). The suspension” for “The suspension”
# (§10) The compound of the present invention and the control compound were dissolved in DMSO (Sigma) respectively, with the purity of more than 98%. The compound was stored in a concentration of 10 mM at −20° C. and diluted to 2- or 10-fold series prior to use.
# (§11) Dojindo CCK8 reagent kit was used as MTT assay. THERMO […] FC meter was used as microplate reader.
# (§12) For adherent cells, culture medium was removed and immediately replaced with the fresh prepared medium which contains 10% CCK8 reagent (100 μL/well). For the suspension cells, CCK8 was directly added to 10% of the final concentration. The cells were continually incubated for 1˜4 h. When a dark yellow color could be observed in the solvent control wells, the absorbance value at OD450 nm was measured and the cell growth rate was calculated according to the following formula: Cell Growth Rate (%)=100*(T−T0)/(C−T0) T=optical density of drug treatment cell well—optical density of blank control well; T0=optical density of cell well before drug treatment—optical density of blank control well; C=optical density of cell well of solvent control group—optical density of blank control well. The concentration value of 50% inhibition of cell growth (GI50) was calculated according to the drug concentration and cell growth rate curve. […]
# [6] = test system: KG-1 (expressing FGFR1OP2-FGFR1 fusion protein); assay: In vitro growth inhibition (GI50), KG-1; type: cell-based; details: Homo sapiens; Cell lines of leukemia; read-out: GI 50 KG-1 FGFR1OP 2-FGFR1
# Text: as §1, §2, §3, §4, §5, §6, §7, §8, §9
# HL-60 (FLT3 wild type) = assay: In vitro growth inhibition (GI50), HL-60; type: cell-based; details: Homo sapiens, Cell lines of leukemia, read-out: GI 50 HL60 FLT3 (WT)
# Text: as §1, §2, §3, §4
# as §5, with “Adherent cells were digested with 0.25% pancreatin-EDTA (Gibco). The suspension” for “The suspension”
# as §10, §11, §12
# [7] = test system: OCI-AML3 (NPMc+ mutant type); assay: In vitro growth inhibition (GI50), OCI-AML3; type: cell-based; details: Homo sapiens, OCI-AML-3; Cell lines of leukemia; read-out: GI 50 OCI- AML3 NPMc+
# Text: as §1, §2, §3, §4, §5, §6, §7, §8, §9
GI50 [1] [µM],GI50 [2] [µM],GI50 (RS4; 11 (FLT3 wild type)) [µM],GI50 [3] [µM],GI50 [4] [µM],GI50 (U937 (FLT3 wild-type)) [µM],GI50 (HL-60 (FLT3 wild type)) [µM],GI50 [7] [µM],SMILES,GI50 [5] [µM],GI50 [6] [µM]
0.0001 to 0.001,0.0001 to 0.001,> 1,> 1,> 1,> 1,> 1,> 1,"CCOc1ccc2c(c1)ncn2-c1ccc(NC(=O)Nc2cc(C(C)(C)C)on2)cc1 [Compound 6, 1-(5-tert-butyl-isoxazol-3-yl)-3-[4-(5-ethoxyl-benzimidazol-1-yl)-phenyl]-urea]",> 1,> 1
0.0001 to 0.001,0.0001 to 0.001,> 1,> 1,> 1,> 1,> 1,> 1,"CCCCCCOc1ccc2c(c1)ncn2-c1ccc(NC(=O)Nc2cc(C(C)(C)C)on2)cc1 [Compound 7, 1-(5-tert-butyl-isoxazol-3-yl)-3-[4-(5-hexyloxyl-benzimidazol-1-yl)-phenyl]-urea]",> 1,> 1
0.0001 to 0.001,0.0001 to 0.001,> 1,> 1,> 1,> 1,> 1,> 1,"CC(C)Oc1ccc2c(c1)ncn2-c1ccc(NC(=O)Nc2cc(C(C)(C)C)on2)cc1 [Compound 8, 1-(5-tert-butyl-isoxazol-3-yl)-3-[4-(5-isopropoxy-benzimidazol-1-yl)-phenyl]-urea]",> 1,> 1
0.0001 to 0.001,0.0001 to 0.001,> 1,> 1,> 1,> 1,> 1,> 1,"CC1(COc2ccc3c(c2)ncn3-c2ccc(NC(=O)Nc3cc(C(C)(C)C)on3)cc2)COC1 [Compound 9, 1-(5-tert-butyl-isoxazol-3-yl)-3-{4-[5-(3-methyl-oxetan-3-ylmethoxy)-benzimidazol-1-yl]-phenyl]urea]",> 1,> 1
0.0001 to 0.001,0.0001 to 0.001,> 1,> 1,> 1,> 1,> 1,> 1,"CC(C)(C)c1cc(NC(=O)Nc2ccc(-n3cnc4cc(OCC5CCCO5)ccc43)cc2)no1 (stereo not shown) [Compound 10, 1-(5-tert-butyl-isoxazol-3-yl)-3-{4-[5-(tetrahydrofuran-2-ylmethoxy)-benzimidazol-1-yl]-phenyl}-urea]",> 1,> 1
0.0001 to 0.001,0.0001 to 0.001,> 1,> 1,> 1,> 1,> 1,> 1,"CCOCCOc1ccc2c(c1)ncn2-c1ccc(NC(=O)Nc2cc(C(C)(C)C)on2)cc1 [Compound 13, 1-(5-tert-butyl-isoxazol-3-yl)-3-{4-[5-(2-ethoxyl-ethoxyl)-benzimidazol-1-yl]-phenyl]-urea]",> 1,> 1
0.0001 to 0.001,0.0001 to 0.001,> 1,> 1,> 1,> 1,> 1,> 1,"CC(C)(C)c1cc(NC(=O)Nc2ccc(-n3cnc4cc(OC(=O)N5CCOCC5)ccc43)cc2)no1 [Compound 15, 1-{4-[3-(5-tert-butyl-isoxazol-3-yl)-carbamido]-phenyl}-1H-benzimidazol-5-yl morpholin-4-carboxylate]",> 1,> 1
0.0001 to 0.001,0.0001 to 0.001,0.1 to 1,0.1 to 1,0.1 to 1,0.1 to 1,0.1 to 1,> 1,"CC(C)(C)c1cc(NC(=O)Nc2ccc(-n3cnc4cc(OCCN5CCCCC5)ccc43)cc2)no1 [Compound 17, 1-(5-tert-butyl-isoxazol-3-yl)-3-{4-[5-(2-piperidin-1-yl-ethoxyl)-benzimidazol-1-yl]-phenyl}-urea]",0.1 to 1,0.1 to 1
0.001 to 0.01,0.001 to 0.01,> 1,> 1,0.1 to 1,> 1,0.1 to 1,> 1,"CC(C)(C)c1cc(NC(=O)Nc2ccc(-n3cnc4cc(OCCN5CCCCCC5)ccc43)cc2)no1 [Compound 18, 1-{4-[5-(2-azepan-1-yl-ethoxyl)-benzimidazol-1-yl]-phenyl}3-(5-tert-butyl-isoxazole-3-yl)-urea]",0.1 to 1,0.1 to 1
0.0001 to 0.001,0.0001 to 0.001,0.01 to 0.1,0.1 to 1,0.1 to 1,> 1,0.1 to 1,> 1,"CN1CCN(CCCOc2ccc3c(c2)ncn3-c2ccc(NC(=O)Nc3cc(C(C)(C)C)on3)cc2)CC1 [Compound 19, 1-(5-tert-butyl-isoxazol-3-yl)-3-(4-{5-[3-(4-methyl-piperazin-1-yl)-propoxyl]-benzimidazol-1-yl}-phenyl)-urea]",0.1 to 1,0.1 to 1
